“And” between values parts separate entries of the source, which are not always exact repeats. Equal entries are not always repeated.
What was measured:
[1] = test system: HCT116-oxaliplatin resistant cells; assay: Colony formation assay with oxaliplatin; assay type: cell-based; details: 1 μM oxaliplatin alone, 10 days
Protocol: HCT116-oxaliplatin res cells were seeded at 2000 cells/well in 6-well plates and allowed to adhere overnight. The next day, oxaliplatin and IE-8 were added simultaneously. First, the specific amount of cells solution was removed from each well and afterwards the same volume of the appropriate drug dilution was added to achieve the right concentration. IE-8 was diluted in DMA. Cells were also treated with Oxaliplatin and IE-8 alone. The plates were left the incubator and the cells were allowed to grow colonies for 10 days. After 10 days the entire cell solution was removed from each well, which was subsequently washed with 500 μl of PBS. 1 ml of cold 100% methanol was added and the plates were incubated for 30 minutes at 4 C. After a second wash, the cells were stained with 1 ml of […] staining dye for 2-3 minutes, rinsed with water, allowed to dry overnight and the colonies were quantified using a gel imaging system (Fusion Fx7) and its in-built colony counter software.

pStat3^Tyr705 = assay: Immunoblotting of phosphorylated Stat3 in cancer cells; assay type: cell-based, human; details: DU145 and A549 cells with constitutively active Stat3, 18 h
Protocol: (§1) Whole cell lysates were prepared by incubation of harvested, trypsinised cells with CelLytic™ lysis buffer (Sigma-Aldrich) supplemented with 1× protease and 1× phosphatase inhibitors (Roche). Protein quantification was carried out using a protein assay kit (Bio-Rad). 40 μg of the lysates were denatured by heating for 5 min at 95° C. in sample buffer containing 100 mM Tris-Cl (pH 6.8), 4% SDS, 10% 2-mercaptoethanol, 20% glycerol, and 0.02% bromophenol blue. Precision Plus Protein Dual colour standards (Bio-Rad) were used as a molecular weight reference. For the detection of STAT3, pSTAT3, α/β tubulin, cleaved PARP, Bcl-2, Bcl-xL, FANCD2, BRCA1, EME1 and MUS81, proteins were separated on a NuPAGE 7% Tris-acetate gel (Life Technologies) and subsequently transferred to polyvinylidene difluoride membranes (Immobilon®-P transfer membrane; Millipore). […] Membranes were blocked for 1 h at ambient temperature in a blocking buffer containing 5% w/v Bovine Serum Albumin (BSA; Sigma-Aldrich) in 1×TBS, 0.1% Tween-20. All proteins were identified by incubation in a 1:1000 dilution of the respective polyclonal antibodies (Cell signaling) in blocking buffer overnight at 4° C. and subsequent incubation for 1 h with an anti-rabbit or anti-mouse secondary antibody (Cell signalling) at a dilution of 1:1000. The α/β tubulin (1:2000; Cell Signaling) and the anti-phospho-histone H2AX Antibody (1:500; Millipore) were used in the denoted dilutions. Antibody binding was visualized by enhanced chemiluminescence (Amersham) on autoradiography film (Kodak-X-Omat). Alternatively Images were captured by the GelDoc-It Imaging System Fusion Fx7 (Vilber Lourmat, Germany).
as §1, with “Immunoblotting. Whole” for “Whole”, “CelLytic™ M” for “CelLytic™”, “pSTAT3, a/0” for “pSTAT3, α/β”, “in 1×TBS” for “in 1×TBS,”, “(Cell signalling)” for “(Cell signaling)”

DU145 cells = assay: SRB growth inhibition and combination index with cisplatin, DU145; assay type: cell-based
Protocol: (§2) The affected fractions were calculated from the SRB or MTT assay absorbance values and were registered to derive the respective CI values and isobolograms. A CI value of less than 1 (one) indicates synergy.
(§3) The SRB assay was used to assess cell growth inhibition by IE-8 alone and in combination with cisplatin. […] For combination studies drug treatments were sequential with IE-8 applied first followed by cisplatin for 1 h. […] Absorbance was read at 540 nm and results were normalized to untreated controls. For analysis of GC50 values and statistical significance, non-linear regression analysis with a comparison of fits was performed with the GraphPad Prism 6.0 software.
as §3, with “Drug Combination studies. Sulforhodamine B (SRB) Cell Growth Inhibition Assay. The” for “The”, “8 h” for “IE-8”

A549 cells = assay: SRB growth inhibition and combination index with cisplatin, A549; assay type: cell-based, human
Protocol: as §2, §3
as §3, with “Drug Combination studies. Sulforhodamine B (SRB) Cell Growth Inhibition Assay. The” for “The”, “8 h” for “IE-8”

[2] = test system: A2780-cisplatin resistant spheroids; assay: CellTiter-Glo 3D cell viability assay, A2780-cisplatin resistant spheroids; assay type: cell-based; details: 96 h exposure, 3D CellTiter-Glo
Protocol: (§4) For cell spheroid formation, HCT116-oxaliplatin resistant cells, A2780-cisplatin resistant cells, and HT1080 cells were seeded in Corning® Spheroid opaque-walled 96 well Microplates (ultra-low attachment; Nuclon™ Sphera™, Thermofisher) at densities of 2000 cells/well in 100 μl of cell solution and allowed to grow for 4 days, before any manipulation.
(§5) At the end of drug incubation, both the plates and the CellTitre-Glo® reagent (previously thawn overnight in the fridge) were equilibrated at room temperature for at least 30 min. Subsequently, 100 μl of cell solution were carefully removed from each well, without disrupting the spheroid and equal volume of CellTitre-Glo® reagent was added. Cell lysis was performed by vigorously shaking the plate for 5 min. To stabilize the luminescent signal, the plate was incubated in the dark at RT for another 30 min before luminescence was recorded on a plate reader. The cell viability of treated samples was normalised to the untreated controls.
(§6) The cytotoxicity studies in spheroids were conducted using the CellTiter-Glo® 3D Cell viability assay (Promega) following the instructions of the manufacturer.

[3] = test system: A2780-cisplatin resistant spheroids; assay: Spheroid diameter measurement; assay type: cell-based; details: 96 h
Protocol: as §4
The diameters of spheroid cells were determined using Cell^F Imaging Software. A diameter corresponds to the mean value of one horizontal and one vertical measurement.

[4] = test system: HCT116-oxaliplatin resistant spheroids; assay: CellTiter-Glo 3D cell viability assay, HCT116-oxaliplatin resistant spheroids; assay type: cell-based; details: 96 h exposure, 3D CellTiter-Glo
Protocol: as §4
as §5, with “Spheroid cells were treated by adding 100 μl of 2-fold the desired compound concentration and incubated at 37° C. for 96 h. At” for “At”
as §6

[5] = cisplatin alone 1 h, 96 h total, SRB

O=C(O)C(=O)O.[NH-][C@@H]1CCCC[C@H]1[NH-].[Pt+2] [Oxaliplatin, reference compound]
number of colonies [1]: about 260

O=[N+]([O-])c1ccc2c(c1)S(=O)(=O)C=C2 [Stattic]
inhibition of Stat3 tyrosine (705) phosphorylation (pStat3) (pStat3^Tyr705): much higher doses are required
combination index analysis with cisplatin (DU145 cells; stattic:cisplatin ratio 1:5): lower levels of synergy within a narrower range of doses
combination index analysis with cisplatin (A549 cells; stattic:cisplatin ratio 1:5): lower levels of synergy
IC50 [2]: 9.14 ± 2.74 µM

N.N.[Cl][Pt][Cl] [Cisplatin, reference compound]
IC50 (DU145 cells; [5]): 49.2 µM and 49.3 µM
IC50 (A549 cells; [5]): 77.8 µM and 64.6 µM
Diameter (μm) ([3]; cisplatin 1.75 μM): 1071.4 μm
Diameter (μm) ([3]; cisplatin 3.5 μM): 1047.5 μm
Diameter (μm) ([3]; cisplatin 5.25 μM): 916.4 μm
Diameter (μm) ([3]; cisplatin 7.0 μM): 833.6 μm
Diameter (μm) ([3]; cisplatin 7.0 μM, listed as cisplatin): 834 μm
Diameter (μm) ([3]; cisplatin 8.75 μM): 713.0 μm

COc1cc(/C=C/C(=O)CC(=O)/C=C/c2ccc(O)c(OC)c2)ccc1O [Curcumin]
IC50 [2]: 37 ± 9.4 µM

CC1(C)C=C(CN2C/C(=C\c3ccc(F)cc3)C(=O)/C(=C/c3ccc(F)cc3)C2)C(C)(C)N1O [HO-3867, reference compound]
IC50 [4]: 33 µM
IC50 [2]: 29.7 ± 7.81 µM

O=C1C(O)=C([C@H]2CC[C@H](c3ccc(Cl)cc3)CC2)C(=O)c2ccccc21 [Atovaquone, reference compound]
IC50 [4]: 16.5 µM
IC50 [2]: 24.4 ± 3.36 µM
